Measured values published in PubChem BioAssay AID1918952 (Molecular Pharmacology Branch, DTP, NCI, 2023).
“And” between values parts separate entries of the source, which are not always exact repeats. Equal entries are not always repeated.

Tested on: LG0703-F948-PDC complex spheroid viability
Test: Anticancer human tumor LG0703-F948-PDC patient-derived lung adenocarcinoma cell line growth inhibition
Details: for viability, T/C: stronger effect = lower value
Method in brief: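 Drug combinations with the LSD1 inhibitor iadademstat tested on tumor cells co-cultured as spheroids with endothelial cells and mesenchymal stem cells. Concentrations descended in half-log increments from clinical Cmax or 10 microM.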

[1] = curve of first compound, second compound 0.1 µM
[2] = curve of first compound, second compound 0.316 µM
[3] = curve of first compound, second compound 1 µM
[4] = curve of first compound, second compound 3.16 µM
[5] = curve of first compound, second compound 10 µM
[6] = second compound 0.1 µM, first compound 0.00949 µM
[7] = second compound 0.1 µM, first compound 0.03 µM
[8] = second compound 0.1 µM, first compound 0.0949 µM
[9] = second compound 0.1 µM, first compound 0.3 µM
[10] = second compound 0.316 µM, first compound 0.00949 µM
[11] = second compound 0.316 µM, first compound 0.03 µM
[12] = second compound 0.316 µM, first compound 0.0949 µM
[13] = second compound 0.316 µM, first compound 0.3 µM
[14] = second compound 1 µM, first compound 0.00949 µM
[15] = second compound 1 µM, first compound 0.03 µM
[16] = second compound 1 µM, first compound 0.0949 µM
[17] = second compound 1 µM, first compound 0.3 µM
[18] = second compound 3.16 µM, first compound 0.00949 µM
[19] = second compound 3.16 µM, first compound 0.03 µM
[20] = second compound 3.16 µM, first compound 0.0949 µM
[21] = second compound 3.16 µM, first compound 0.3 µM
[22] = second compound 10 µM, first compound 0.00949 µM
[23] = second compound 10 µM, first compound 0.03 µM
[24] = second compound 10 µM, first compound 0.0949 µM
[25] = second compound 10 µM, first compound 0.3 µM
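Further: spheroids exposed to agents for seven days before readout.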
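Wherever viability, T/C is given: 100% = DMSO vehicle control wells as normalization base.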

CC1COCCN1c1cc(-c2ccnn2C)c2ccnc(-c3ccn[nH]3)c2n1 (configuration not stated)
viability, T/C (compound 0.00316 µM): 66.6% and 63.7%
viability, T/C (compound 0.01 µM): 59.2% and 61.9%
viability, T/C (compound 0.0316 µM): 47.8% and 42.4%
viability, T/C (compound 0.1 µM): 39.4% and 29.3%
viability, T/C (compound 0.316 µM): 28.8% and 27.1%
viability, T/C (compound 1 µM): 14% and 10.7%
IC50 (curve of compound): 29 nM and 19.7 nM

Nc1ncn(C2CC(O)C(CO)S2)c(=O)n1 (configuration not stated) + NC1CCC(NC2CC2c2ccccc2)CC1
IC50 [1]: > 300 nM
IC50 [2]: > 300 nM
IC50 [3]: > 300 nM
IC50 [4]: > 300 nM
IC50 [5]: > 300 nM
viability, T/C (second compound 0.1 µM, first compound 0.000949 µM): 114%
viability, T/C (second compound 0.1 µM, first compound 0.003 µM): 117%
viability, T/C [6]: 107%
viability, T/C [7]: 120%
viability, T/C [8]: 113%
viability, T/C [9]: 99.9%
viability, T/C (second compound 0.316 µM, first compound 0.000949 µM): 124%
viability, T/C (second compound 0.316 µM, first compound 0.003 µM): 123%
viability, T/C [10]: 121%
viability, T/C [11]: 113%
viability, T/C [12]: 128%
viability, T/C [13]: 99.8%
viability, T/C (second compound 1 µM, first compound 0.000949 µM): 112%
viability, T/C (second compound 1 µM, first compound 0.003 µM): 115%
viability, T/C [14]: 118%
viability, T/C [15]: 122%
viability, T/C [16]: 123%
viability, T/C [17]: 104%
viability, T/C (second compound 3.16 µM, first compound 0.000949 µM): 121%
viability, T/C (second compound 3.16 µM, first compound 0.003 µM): 125%
viability, T/C [18]: 115%
viability, T/C [19]: 121%
viability, T/C [20]: 137%
viability, T/C [21]: 119%
viability, T/C (second compound 10 µM, first compound 0.000949 µM): 116%
viability, T/C (second compound 10 µM, first compound 0.003 µM): 126%
viability, T/C [22]: 115%
viability, T/C [23]: 107%
viability, T/C [24]: 113%
viability, T/C [25]: 108%

CC1COCCN1c1cc(-c2ccnn2C)c2ccnc(-c3ccn[nH]3)c2n1 (configuration not stated) + NC1CC1c1ccc(-c2cccc(O)c2)cc1
IC50 [1]: 37.4 nM
IC50 [2]: 44.4 nM
IC50 [3]: 49.1 nM
IC50 [4]: 43.7 nM
IC50 [5]: 46.3 nM
viability, T/C (second compound 0.1 µM, first compound 0.00316 µM): 80.4%
viability, T/C (second compound 0.1 µM, first compound 0.01 µM): 74.6%
viability, T/C (second compound 0.1 µM, first compound 0.0316 µM): 49.8%
viability, T/C (second compound 0.1 µM, first compound 0.1 µM): 32.7%
viability, T/C (second compound 0.1 µM, first compound 0.316 µM): 20.2%
viability, T/C (second compound 0.1 µM, first compound 1 µM): 7.17%
viability, T/C (second compound 0.316 µM, first compound 0.00316 µM): 85.5%
viability, T/C (second compound 0.316 µM, first compound 0.01 µM): 72.3%
viability, T/C (second compound 0.316 µM, first compound 0.0316 µM): 57.9%
viability, T/C (second compound 0.316 µM, first compound 0.1 µM): 33.9%
viability, T/C (second compound 0.316 µM, first compound 0.316 µM): 18.7%
viability, T/C (second compound 0.316 µM, first compound 1 µM): 6.39%
viability, T/C (second compound 1 µM, first compound 0.00316 µM): 73%
viability, T/C (second compound 1 µM, first compound 0.01 µM): 70.2%
viability, T/C (second compound 1 µM, first compound 0.0316 µM): 64.1%
viability, T/C (second compound 1 µM, first compound 0.1 µM): 27.9%
viability, T/C (second compound 1 µM, first compound 0.316 µM): 21.6%
viability, T/C (second compound 1 µM, first compound 1 µM): 6.68%
viability, T/C (second compound 3.16 µM, first compound 0.00316 µM): 80.8%
viability, T/C (second compound 3.16 µM, first compound 0.01 µM): 77%
viability, T/C (second compound 3.16 µM, first compound 0.0316 µM): 55.7%
viability, T/C (second compound 3.16 µM, first compound 0.1 µM): 31.4%
viability, T/C (second compound 3.16 µM, first compound 0.316 µM): 19.1%
viability, T/C (second compound 3.16 µM, first compound 1 µM): 6.21%
viability, T/C (second compound 10 µM, first compound 0.00316 µM): 91.1%
viability, T/C (second compound 10 µM, first compound 0.01 µM): 82.3%
viability, T/C (second compound 10 µM, first compound 0.0316 µM): 60.4%
viability, T/C (second compound 10 µM, first compound 0.1 µM): 28.6%
viability, T/C (second compound 10 µM, first compound 0.316 µM): 18.8%
viability, T/C (second compound 10 µM, first compound 1 µM): 8.21%

Nc1ccccc1NC(=O)c1ccc(CNC(=O)OCc2cccnc2)cc1 + NC1CCC(NC2CC2c2ccccc2)CC1
IC50 [1]: 118 nM
IC50 [2]: 142 nM
IC50 [3]: 127 nM
IC50 [4]: 141 nM
IC50 [5]: 139 nM
viability, T/C [6]: 110%
viability, T/C [7]: 99.9%
viability, T/C [8]: 58.8%
viability, T/C [9]: 12.6%
viability, T/C (second compound 0.1 µM, first compound 0.949 µM): 1.17%
viability, T/C (second compound 0.1 µM, first compound 3 µM): 0.33%
viability, T/C [10]: 105%
viability, T/C [11]: 93.8%
viability, T/C [12]: 70.2%
viability, T/C [13]: 14.2%
viability, T/C (second compound 0.316 µM, first compound 0.949 µM): 1.51%
viability, T/C (second compound 0.316 µM, first compound 3 µM): 0.96%
viability, T/C [14]: 87.7%
viability, T/C [15]: 94.8%
viability, T/C [16]: 59.4%
viability, T/C [17]: 17%
viability, T/C (second compound 1 µM, first compound 0.949 µM): 1.08%
viability, T/C (second compound 1 µM, first compound 3 µM): 0.48%
viability, T/C [18]: 112%
viability, T/C [19]: 109%
viability, T/C [20]: 68.9%
viability, T/C [21]: 13.5%
viability, T/C (second compound 3.16 µM, first compound 0.949 µM): 0.24%
viability, T/C (second compound 3.16 µM, first compound 3 µM): 0.24%
viability, T/C [22]: 94.7%
viability, T/C [23]: 85.2%
viability, T/C [24]: 67.2%
viability, T/C [25]: 17%
viability, T/C (second compound 10 µM, first compound 0.949 µM): 0.59%
viability, T/C (second compound 10 µM, first compound 3 µM): 0.92%
